Patent publication US20030022158A1, “Peptides from the TT virus sequence and monospecific antibodies binding to the TT virus” (priority 1999, published 2003)

System: human IgG antibodies in human serum samples
Assay: EIA of human antibody reactivities to overlapping synthetic peptides of TTV ORF1 and ORF2 (Tables 2 and 3)
Format: binding
Conditions: for optical density (OD) at 405 nm: serum diluted 1:100, OD over 0.500 considered positive; for human reactivity to peptide (reactive peptides within ORF1): tested human sera; for optical density (OD) at 405 nm, EIA reactivity of human serum sample 1: serum sample 1, negative for TTV DNA by PCR; for optical density (OD) at 405 nm, EIA reactivity of human serum sample 1 / optical density (OD) at 405 nm, EIA reactivity of human serum sample 2 / optical density (OD) at 405 nm, EIA reactivity of human serum sample 3 / optical density (OD) at 405 nm, EIA reactivity of human serum sample 4 / optical density (OD) at 405 nm, EIA reactivity of human serum sample 5 / optical density (OD) at 405 nm, EIA reactivity of human serum sample 6 / optical density (OD) at 405 nm, EIA reactivity of human serum sample 7 / optical density (OD) at 405 nm, EIA reactivity of human serum sample 9 / optical density (OD) at 405 nm, EIA reactivity of human serum sample 11 / optical density (OD) at 405 nm, EIA reactivity of human serum sample 18 / optical density (OD) at 405 nm, EIA reactivity of human serum sample 36 / optical density (OD) at 405 nm, EIA reactivity of human serum sample 48 / optical density (OD) at 405 nm, EIA reactivity of human serum sample 98 / optical density (OD) at 405 nm, EIA reactivity of human serum sample 110 / optical density (OD) at 405 nm, EIA reactivity of human serum sample 155 / optical density (OD) at 405 nm, EIA reactivity of human serum sample 157: serum 1:100, peptide coated 10 μg/ml, OD over 0.500 positive; for optical density (OD) at 405 nm, EIA reactivity of human serum sample 2: serum sample 2, negative for TTV DNA by PCR; for optical density (OD) at 405 nm, EIA reactivity of human serum sample 3: serum sample 3, negative for TTV DNA by PCR; for optical density (OD) at 405 nm, EIA reactivity of human serum sample 4: serum sample 4, negative for TTV DNA by PCR; for optical density (OD) at 405 nm, EIA reactivity of human serum sample 5: serum sample 5, negative for TTV DNA by PCR; for optical density (OD) at 405 nm, EIA reactivity of human serum sample 6: serum sample 6, negative for TTV DNA by PCR; for optical density (OD) at 405 nm, EIA reactivity of human serum sample 7: serum sample 7, negative for TTV DNA by PCR; for optical density (OD) at 405 nm, EIA reactivity of human serum sample 9: serum sample 9, positive for TTV DNA by PCR; for optical density (OD) at 405 nm, EIA reactivity of human serum sample 11: serum sample 11, negative for TTV DNA by PCR; for optical density (OD) at 405 nm, EIA reactivity of human serum sample 18: serum sample 18, positive for TTV DNA by PCR; for optical density (OD) at 405 nm, EIA reactivity of human serum sample 36: serum sample 36, positive for TTV DNA by PCR; for optical density (OD) at 405 nm, EIA reactivity of human serum sample 48: serum sample 48, positive for TTV DNA by PCR; for optical density (OD) at 405 nm, EIA reactivity of human serum sample 98: serum sample 98, positive for TTV DNA by PCR; for optical density (OD) at 405 nm, EIA reactivity of human serum sample 110: serum sample 110, positive for TTV DNA by PCR; for optical density (OD) at 405 nm, EIA reactivity of human serum sample 155: serum sample 155, positive for TTV DNA by PCR; for optical density (OD) at 405 nm, EIA reactivity of human serum sample 157: serum sample 157, positive for TTV DNA by PCR
Excerpt: Overlapping peptides (18 amino acids in length containing an 8 amino acid overlap) corresponding to regions of the ORFI and ORF2 of TTV (TABLE 1; Genebank accession no AB008394) were produced by a multiple peptide synthesizer (Syro, Syntex, Germany) using standard Fmoc chemistry (Sallberg et al., Immunology Letters, 30:59 68 (1991), herein expressly incorporated by reference in its entirety).
The EIAs used to identify which peptides interacted with human sera followed protocols known in the art. (See Zhang et al., J Gen Virol, 78:2735-2746 (1997), herein expressly incorporated by reference in its entirety). Briefly, microplates (Nunc, Denmark) were coated for 48 hours with synthetic peptides at a concentration of 10 μg/ml in 0.05M sodium carbonate buffer pH 9.6. After blocking for 2 hours at room temperature with phosphate buffered saline containing 1% bovine serum albumin, 2% goat serum and 0.05% Tween 20 (dilution buffer) the plates were incubated with human sera diluted 1:100 in dilution buffer. Bound human IgG was detected by incubation with anti-human IgG antibodies conjugated to alkaline phosphatase (Sigma Chemicals, St. Louis, Mo.). The plates were developed by the addition of […] (Sigma) and the optical densities were determined at 405 nm.

[1] = human serum sample 1, negative for TTV DNA by PCR
[2] = human serum sample 2, negative for TTV DNA by PCR
[3] = human serum sample 3, negative for TTV DNA by PCR
[4] = human serum sample 4, negative for TTV DNA by PCR
[5] = human serum sample 5, negative for TTV DNA by PCR
[6] = human serum sample 6, negative for TTV DNA by PCR
[7] = human serum sample 7, negative for TTV DNA by PCR
[8] = human serum sample 9, positive for TTV DNA by PCR
[9] = human serum sample 11, negative for TTV DNA by PCR
[10] = human serum sample 18, positive for TTV DNA by PCR
[11] = human serum sample 36, positive for TTV DNA by PCR
[12] = human serum sample 48, positive for TTV DNA by PCR
[13] = human serum sample 98, positive for TTV DNA by PCR
[14] = human serum sample 110, positive for TTV DNA by PCR
[15] = human serum sample 155, positive for TTV DNA by PCR
[16] = human serum sample 157, positive for TTV DNA by PCR

Sequence | optical density (OD) at 405 nm [1] | optical density (OD) at 405 nm [2] | optical density (OD) at 405 nm [3] | optical density (OD) at 405 nm [4] | optical density (OD) at 405 nm [5] | optical density (OD) at 405 nm [6] | optical density (OD) at 405 nm [7] | optical density (OD) at 405 nm [8] | optical density (OD) at 405 nm [9] | optical density (OD) at 405 nm [10] | optical density (OD) at 405 nm [11] | optical density (OD) at 405 nm [12] | optical density (OD) at 405 nm [13] | optical density (OD) at 405 nm [14] | optical density (OD) at 405 nm [15] | optical density (OD) at 405 nm [16] | human reactivity to peptide (reactive peptides within ORF1) (EIA) | optical density (OD) at 405 nm, EIA reactivity of human serum sample 1 | optical density (OD) at 405 nm, EIA reactivity of human serum sample 2 | optical density (OD) at 405 nm, EIA reactivity of human serum sample 3 | also measured
QKESLLFPPVKLLRRVP (Peptide Immunogen) [compound 69, overlapping synthetic peptide of TTV ORF1] | 0.10 OD | 0.15 OD | 0.16 OD | 0.14 OD | 0.12 OD | 0.51 OD | 0.11 OD | 0.09 OD | 0.13 OD | 0.08 OD | 0.08 OD | 0.09 OD | 0.10 OD | 0.11 OD | 0.15 OD | 0.21 OD | Reactive |  |  |  | 
EDGGAGGDADHGGAAGGP (Peptide Immunogen) [ORF2 peptide 19, overlapping synthetic peptide of TTV ORF2] |  |  |  |  |  |  |  |  |  |  |  |  |  |  |  |  |  |  |  |  | number of tested human sera reactive with the peptide (ORF2 peptide, EIA): Two of the tested human sera were reactive
VLICGENTVSRNYATHS (Peptide Immunogen) [compound 10, overlapping synthetic peptide of TTV ORF1] | 0.09 OD | 0.10 OD | 0.11 OD | 0.11 OD | 0.11 OD | 0.13 OD | 1.09 OD | 0.09 OD | 0.12 OD | 0.07 OD | 0.07 OD | 0.11 OD | 0.06 OD | 0.09 OD | 0.12 OD | 0.12 OD | Reactive | 0.09 OD | 0.11 OD | 0.10 OD | optical density (OD) at 405 nm, EIA reactivity of human serum sample 4: 0.09 OD; optical density (OD) at 405 nm, EIA reactivity of human serum sample 5: 0.08 OD; optical density (OD) at 405 nm, EIA reactivity of human serum sample 6: 0.11 OD; optical density (OD) at 405 nm, EIA reactivity of human serum sample 7: 0.08 OD; optical density (OD) at 405 nm, EIA reactivity of human serum sample 9: 0.09 OD; optical density (OD) at 405 nm, EIA reactivity of human serum sample 11: 0.10 OD; optical density (OD) at 405 nm, EIA reactivity of human serum sample 18: 0.09 OD; optical density (OD) at 405 nm, EIA reactivity of human serum sample 36: 0.07 OD; optical density (OD) at 405 nm, EIA reactivity of human serum sample 48: 0.08 OD; optical density (OD) at 405 nm, EIA reactivity of human serum sample 98: 0.08 OD; optical density (OD) at 405 nm, EIA reactivity of human serum sample 110: 0.08 OD; optical density (OD) at 405 nm, EIA reactivity of human serum sample 155: 0.11 OD; optical density (OD) at 405 nm, EIA reactivity of human serum sample 157: 0.13 OD
KINTMPPFLDTELTAPS (Peptide Immunogen) [compound 18, overlapping synthetic peptide of TTV ORF1] | 0.09 OD | 0.09 OD | 0.15 OD | 0.29 OD | 0.07 OD | 0.13 OD | 0.62 OD | 0.08 OD | 0.28 OD | 0.07 OD | 0.13 OD | 0.12 OD | 0.04 OD | 0.08 OD | 0.19 OD | 0.18 OD | Reactive | 0.00 OD | 0.00 OD | 0.00 OD | optical density (OD) at 405 nm, EIA reactivity of human serum sample 4: 0.00 OD; optical density (OD) at 405 nm, EIA reactivity of human serum sample 5: 0.00 OD; optical density (OD) at 405 nm, EIA reactivity of human serum sample 6: 0.00 OD; optical density (OD) at 405 nm, EIA reactivity of human serum sample 7: 0.00 OD; optical density (OD) at 405 nm, EIA reactivity of human serum sample 9: 0.00 OD; optical density (OD) at 405 nm, EIA reactivity of human serum sample 11: 0.00 OD; optical density (OD) at 405 nm, EIA reactivity of human serum sample 18: 0.00 OD; optical density (OD) at 405 nm, EIA reactivity of human serum sample 36: 0.00 OD; optical density (OD) at 405 nm, EIA reactivity of human serum sample 48: 0.00 OD; optical density (OD) at 405 nm, EIA reactivity of human serum sample 98: 0.00 OD; optical density (OD) at 405 nm, EIA reactivity of human serum sample 110: 0.00 OD; optical density (OD) at 405 nm, EIA reactivity of human serum sample 155: 0.00 OD; optical density (OD) at 405 nm, EIA reactivity of human serum sample 157: 0.00 OD
